Laboratory results as given in US7465719B2, “Carbamic acid compounds comprising an ester or ketone linkage as HDAC inhibitors” (Topotarget UK Limited, priority 2003, dated 2008).
pIC50: −log10 of the molar value. Read-outs that look alike come from different tables or passages of the source. Values belong to the compound of their own block, whether it stands above or below them.

How the values were obtained:
HDAC (HeLa cell extract) = assay: Primary assay: deacetylase activity, HeLa cell extract as source of HDAC; format: biochemical, human; conditions: read-out: HDAC Inhibition (IC50 unless otherwise specified) HeLa
Description: Decreased activity indicates increased inhibition by the test compound.
Alternatively, the activity of the compounds as HDAC inhibitors was determined using a commercially available fluorescent assay kit: (Fluor de Lys™, BioMol Research Labs, Inc., Plymouth Meeting, USA).
Extensive comparative studies have shown that Primary Assay (1) and Primary Assay (2), discussed above, yield equivalent results. Primary Assay results reported herein are (a) exclusively from (1); (b) exclusively from (2); or (c) from both (1) and (2).
The HeLa cell extract was made from HeLa cells (ATCC Ref. No. CCL-2) by freeze-thawing three times in 60 mM Tris Cl pH 8.0, 450 mM NaCl, 30% glycerol. Two cell volumes of extraction buffer were used, and particulate material was centrifuged out (20800 g, 4° C., 10 minutes). The supernatant extract having deacetylase activity was aliquotted and frozen for storage.

HeLa cells = assay: Secondary assay: cell proliferation WST-1, HeLa; format: cell-based; conditions: Homo sapiens, read-out: Cell Proliferation Inhibition WST-1 (IC50 unless otherwise specified) HeLa
Description: Compounds with HDAC inhibition activity, as determined using the primary assay, were subsequently evaluated using secondary cell-based assays. The following cell lines were used: • HeLa—Human cervical adenocarcinoma cell line (ATCC ref. No. CCL-2). • K11—HPV E7 transformed human keratinocyte line provided by Pidder Jansen-Duerr, Institut für Biomedizinische Alternsforschung, Innsbruck, Austria. • NHEK-Ad—Primary human adult keratinocyte line (Cambrex Corp., East Rutherford, N.J., USA). • JURKAT—Human T-cell line (ATCC no. TIB-152). Assay Method
Cells were cultured, exposed to candidate compounds, and incubated for a time, and the number of viable cells was then assessed using the Cell Proliferation Reagent WST-1 from Boehringer Mannheim (Cat. No. […]), described below.
(§1) Cells were plated in 96-well plates at 3-10×10^3 cells/well in 100 μL of culture medium. The following day, different concentrations of candidate compounds were added and the cells incubated at 37° C. for 48 hours. Subsequently, 10 μL/well of WST-1 reagent was added and the cells reincubated for 1 hour. After the incubation time, absorbance was measured.
(§2) WST-1 is a tetrazolium salt which is cleaved to formazan dye by cellular enzymes. An expansion in the number of viable cells results in an increase in the overall activity of mitochondrial dehydrogenases in the sample. This augmentation in the enzyme activity leads to an increase in the amount of formazan dye formed, which directly correlates to the number of metabolically active cells in the culture. The formazan dye produced is quantified by a scanning multiwell spectrophotometer by measuring the absorbance of the dye solution at 450 nm wavelength (reference wavelength 690 nm).
(§3) IC50 values were calculated using the software package Prism 3.0 (GraphPad Software Inc., San Diego, Calif.), setting top value at 100 and bottom value at 0.

[1] = tested on: K11 (HPV E7 transformed human keratinocyte line); assay: Secondary assay: cell proliferation WST-1, K11; format: cell-based; conditions: read-out: Cell Proliferation Inhibition WST-1 (IC50 unless otherwise specified) K11
Description: (§4) Compounds with HDAC inhibition activity, as determined using the primary assay, were subsequently evaluated using secondary cell-based assays. […] Assay Method
as §1, §2, §3

[2] = tested on: JURKAT (human T-cell line); assay: Secondary assay: cell proliferation WST-1, Jurkat; format: cell-based; conditions: Jurkat cells, 48 hours, read-out: Cell Proliferation Inhibition WST-1 (IC50 unless otherwise specified) Jurkat
Description: as §4, §1, §2
Percent activity (% activity) in reducing the number of viable cells was calculated for each test compound as: % activity={(S^C−B)/(S^o−B)}×100 wherein S^C denotes signal measured in the presence of the compound being tested, S^o denotes signal measured in the absence of the compound being tested, and B denotes the background signal measured in blank wells containing medium only. […] IC50 values were calculated using the software package Prism 3.0 (GraphPad Software Inc., San Diego, Calif.), setting top value at 100 and bottom value at 0.

[3] = tested on: NHEK-Ad (primary human adult keratinocyte line); assay: Secondary assay: cell proliferation WST-1, NHEK-Ad; format: cell-based; conditions: read-out: Cell Proliferation Inhibition WST-1 (IC50 unless otherwise specified) NHEK-AD
Description: as §4, §1, §2, §3

[4] = Homo sapiens, Keratinocyte, 48 h
[5] = Homo sapiens, Keratinocyte, K11 cells, 48 hours

pIC50 (HDAC (HeLa cell extract)): 7.07
pIC50 (HeLa cells; HeLa cells, 48 hours): 5.31
melting point: 143 to 144 °C
Compound: COc1ccc(C2(C(=O)Oc3ccc(C(=O)NO)cc3)CCCC2)cc1 [PX119063, 4-[(Hydroxyamino)carbonyl]phenyl 1-(4-methoxyphenyl) -cyclopentanecarboxylate]

melting point: 59 to 60 °C
Compound: Cc1ccc(C2(C(=O)Oc3ccc(C(=O)NO)cc3)CCCCC2)cc1 [PX118966, 4-[(Hydroxyamino)carbonyl]phenyl 1-(4-methylphenyl) -cyclohexanecarboxylate]

melting point: 169 to 170 °C
Compound: O=C(O)c1ccc(C2(C(=O)Oc3ccc(C(=O)NO)cc3)CCCCC2)cc1 [PX119102, 4-[1-({4-[(Hydroxyamino)carbonyl]phenoxy}carbonyl)cyclohexyl]-benzoic acid]

pIC50 (HeLa cells; HeLa, 48 h): 6.46
pIC50 ([2]; Homo sapiens): 7.38
Compound: CC(/C=C/C(=O)NO)=C\[C@@H](C)C(=O)c1ccc(N(C)C)cc1 [TSA, Trichostatin A, reference compound]
pIC50 [1, 4]: 6.42
pIC50 [3, 4]: 6.70

melting point: 69 °C
Compound: CC(=O)Oc1ccc(C2(C(=O)Oc3ccc(C(=O)NO)cc3)CCCCC2)cc1 [PX118959, 4-[(Hydroxyamino)carbonyl]phenyl 1-[4-(acetyloxy)phenyl]-cyclohexanecarboxylate]

melting point: 101 to 102 °C
Compound: O=C(NO)c1ccc(OC(=O)C2(c3c(F)cccc3Cl)CCCCC2)cc1 [PX119101, 4-[(Hydroxyamino)carbonyl]phenyl 1-(2-chloro-6-fluorophenyl) -cyclohexanecarboxylate]

melting point: 164 to 165 °C
Compound: O=C(NO)c1ccc(OC(=O)C2(c3ccc(F)cc3Cl)CCCCC2)cc1 [PX119064, 4-[(Hydroxyamino)carbonyl]phenyl 1-(2-chloro-4-fluorophenyl) -cyclohexanecarboxylate]

Compound: COC(=O)c1ccc(C2(C(=O)Oc3ccc(C(=O)NO)cc3)CCCCC2)cc1 [PX118480, Methyl 4-[1-({4-[(hydroxyamino)carbonyl]phenoxy}carbonyl) -cyclohexyl]benzoate]
pIC50 (HDAC (HeLa cell extract)): 7.60
pIC50 (HeLa cells; HeLa cells, 48 hours): 5.10
pIC50 [1, 5]: 5.78
melting point: 129 to 131 °C
pIC50 ([2]; Homo sapiens): 6.11

melting point: 150 to 151 °C
Compound: O=C(NO)c1ccc(OC(=O)C2(c3ccc(F)cc3)CCCCC2)cc1 [PX119065, 4-[(Hydroxyamino)carbonyl]phenyl 1-(4-fluorophenyl) -cyclohexanecarboxylate]

melting point: 114 to 115 °C
Compound: O=C(NO)c1ccc(OC(=O)C2(c3ccc(OC(=O)c4ccccc4)cc3)CCCCC2)cc1 [PX119085, 4-[1-({4-[(Hydroxyamino)carbonyl]phenoxy}carbonyl)cyclohexyl]-phenyl benzoate]

Compound: Nc1ccccc1NC(=O)c1ccc(CNC(=O)OCc2cccnc2)cc1 [MS-275, reference compound]
pIC50 ([1]; K11 cells, 48 hours): 5.04
pIC50 [2]: 6.44
pIC50 ([3]; NHEK-AD cells, 48 hours): 5.51

melting point: 124 to 125 °C
Compound: CC(C)(C)C(=O)Oc1ccc(C2(C(=O)Oc3ccc(C(=O)NO)cc3)CCCCC2)cc1 [PX119086, 4-[(Hydroxyamino)carbonyl]phenyl 1-{4-[(2,2-dimethylpropanoyl)oxy]-phenyl}-cyclohexane-carboxylate]

Compound: O=C(NO)c1ccc(OC(=O)C2(c3ccccc3)CCCCC2)cc1 [PX118479, 4-[(Hydroxyamino)carbonyl]phenyl 1-phenylcyclohexanecarboxylate]
pIC50 (HDAC (HeLa cell extract)): 7.28
pIC50 (HeLa cells; HeLa cells, 48 hours): 4.86
pIC50 [1, 5]: 4.67
melting point: 142 to 144 °C
pIC50 ([2]; Homo sapiens): 5.90

Compound: oxamflatin [reference compound]
pIC50 [2]: 6.77

melting point: 145 to 146 °C
Compound: O=C(NO)c1ccc(OC(=O)C2(c3ccc(Cl)cc3)CCCCC2)cc1 [PX119059, 4-[(Hydroxyamino)carbonyl]phenyl 1-(4-chlorophenyl) -cyclohexanecarboxylate]

melting point: 125 to 126 °C
Compound: O=C(NO)c1ccc(OC(=O)C2(c3ccccc3F)CCCCC2)cc1 [PX119062, 4-[(Hydroxyamino)carbonyl]phenyl 1-(2-fluorophenyl) -cyclohexanecarboxylate]

melting point: 140 to 143 °C
Compound: CCOc1ccc(C2(C(=O)Oc3ccc(C(=O)NO)cc3)CCCCC2)cc1 [PX118925, 4-[(Hydroxyamino)carbonyl]phenyl 1-(4-ethoxyphenyl) -cyclohexanecarboxylate]

melting point: 143 to 147 °C (dec.)
Compound: CC(C)(C)OC(=O)c1ccc(C2(C(=O)Oc3ccc(C(=O)NO)cc3)CCCCC2)cc1 [PX118926, tert-Butyl 4-[1-({4-[(hydroxyamino)carbonyl]phenoxy}-carbonyl)cyclohexyl]benzoate]

Compound: COc1ccc(C2(C(=O)Oc3ccc(C(=O)NO)cc3)CCCCC2)cc1 [PX118478, 4-[(Hydroxyamino)carbonyl]phenyl 1-(4-methoxyphenyl)-cyclohexanecarboxylate]
pIC50 (HDAC (HeLa cell extract)): 7.64
pIC50 (HeLa cells; HeLa cells, 48 hours): 5.34
pIC50 [1, 5]: 4.87
melting point: 127 to 129 °C
pIC50 ([2]; Homo sapiens): 6.30

melting point: 93 to 94 °C
Compound: O=C(NO)c1ccc(OC(=O)C2(c3ccc(O)cc3)CCCCC2)cc1 [PX119103, 4-[(Hydroxyamino)carbonyl]phenyl 1-(4-hydroxyphenyl) -cyclohexanecarboxylate]

melting point: 150 to 151 °C
Compound: O=C(NO)c1ccc(OC(=O)C2(c3cccc(F)c3)CCCCC2)cc1 [PX119061, 4-[(Hydroxyamino)carbonyl]phenyl 1-(3-fluorophenyl) -cyclohexanecarboxylate]
